Results from patent US8791132B2, “Compounds and methods for treatment of hypertension” (Medivation Technologies, Inc., priority 2011, dated 2014).

Key:
[1] = molecular target: T1, human recombinant adrenergic α2B receptor (Homo sapiens, UniProt P18089); assay: Radioligand binding, adrenergic α2B ([3H]Rauwolscine); settings: for Percentage inhibition of ligand binding, Adrenergic α2B / inhibition at 0.03 µM: compound at 0.03 μM, [3H]Rauwolscine, repeat assays, each datapoint shown; for Percentage inhibition of ligand binding, Adrenergic α2B: 0.03 µM; for inhibition at 0.03 µM: read-out: Percentage inhibition of ligand binding, Adrenergic α2B; for Ki: read-out: Ki α2B
T1 construct: expressed in transfected cells; host or cells: CHO-K1
T1 sequence (P18089 1-450): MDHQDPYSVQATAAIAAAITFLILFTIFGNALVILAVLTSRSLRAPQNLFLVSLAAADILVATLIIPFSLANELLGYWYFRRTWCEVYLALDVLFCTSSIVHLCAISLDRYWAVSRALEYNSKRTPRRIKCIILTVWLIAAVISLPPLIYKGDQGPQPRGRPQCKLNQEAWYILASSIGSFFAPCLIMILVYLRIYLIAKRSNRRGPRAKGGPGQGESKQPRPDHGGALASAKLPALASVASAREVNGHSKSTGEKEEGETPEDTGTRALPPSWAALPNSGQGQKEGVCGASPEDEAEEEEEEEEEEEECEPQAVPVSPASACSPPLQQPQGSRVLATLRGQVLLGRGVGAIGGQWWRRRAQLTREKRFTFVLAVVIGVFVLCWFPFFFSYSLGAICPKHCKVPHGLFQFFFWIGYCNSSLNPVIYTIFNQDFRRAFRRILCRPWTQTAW
In short: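 Readout: percent inhibition of specific [3H]Rauwolscine binding, measured by filtration and counting. Conditions: CHO-K1 cell-expressed receptor, 2.5 nM radioligand, 60 min, 25° C, Tris-HCl pH 7.4 buffer with MgCl2, EDTA, BSA. Non-specific binding: 10 μM Prazosin.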

[2] = molecular target: T2, rat adrenergic α1B receptor (Rattus norvegicus, UniProt P15823); assay: Radioligand binding, adrenergic α1B ([3H]Prazosin); settings: [3H]Prazosin, repeat assays, each datapoint shown; for Percentage inhibition of ligand binding, Adrenergic α1B / inhibition at 0.1 µM: compound at 0.1 μM; for Percentage inhibition of ligand binding, Adrenergic α1B: 0.1 µM; for inhibition at 0.1 µM / inhibition at 0.03 µM: read-out: Percentage inhibition of ligand binding, Adrenergic α1B; for inhibition at 0.03 µM: compound at 0.03 μM
T2 construct: rat adrenergic α1B receptor obtained from Wistar Rat liver; from tissue; host or cells: Wistar rat liver
T2 sequence (P15823 1-515): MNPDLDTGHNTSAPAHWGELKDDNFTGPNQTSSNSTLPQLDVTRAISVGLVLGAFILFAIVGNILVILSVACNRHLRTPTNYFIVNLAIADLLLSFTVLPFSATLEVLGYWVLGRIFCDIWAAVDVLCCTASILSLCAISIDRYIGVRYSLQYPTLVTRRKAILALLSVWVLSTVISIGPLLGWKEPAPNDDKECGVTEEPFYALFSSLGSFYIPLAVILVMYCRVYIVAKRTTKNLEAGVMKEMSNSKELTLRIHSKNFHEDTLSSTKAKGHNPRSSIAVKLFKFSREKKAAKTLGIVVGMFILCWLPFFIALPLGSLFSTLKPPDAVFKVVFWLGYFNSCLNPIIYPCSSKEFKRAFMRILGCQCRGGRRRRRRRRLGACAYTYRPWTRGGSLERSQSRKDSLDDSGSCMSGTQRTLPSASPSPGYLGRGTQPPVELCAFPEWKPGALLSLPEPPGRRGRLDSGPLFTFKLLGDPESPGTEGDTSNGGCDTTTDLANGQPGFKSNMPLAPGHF
Experimental: To evaluate in radioligand binding assays the activity of compounds of the invention, rat adrenergic α1B receptor obtained from Wistar Rat liver (Garcia-S'ainz, J. et al, Biochem. Biophys. Res. Commun. 186:760, 1992; Michel, A. et al, Br. J. Pharmacol. 98:883, 1989) in a modified Tris-HCl buffer (50 mM Tris-HCl buffer, pH 7.4, 0.5 mM EDTA) was used. Compounds of the invention were incubated with 0.25 nM [^3H]Prazosin for 60 min at 25° C. Non-specific binding was estimated in the presence of 10 μM phentolamine. Receptor proteins were filtered and washed, the filters were then counted to determine [^3H]Prazosin specifically bound. […] Compounds of the invention were tested in this biochemical assay and percent inhibition of specific binding was determined. Biochemical assay results are presented as the percent inhibition of specific binding in Table B1.

[3] = molecular target: T3, human recombinant adrenergic α2A receptor (Homo sapiens, UniProt P08913); assay: Radioligand binding, adrenergic α2A ([3H]MK-912); settings: for Percentage inhibition of ligand binding, Adrenergic α2A / inhibition at 0.1 µM: compound at 0.1 μM, [3H]MK-912, repeat assays, each datapoint shown; for inhibition at 0.1 µM: read-out: Percentage inhibition of ligand binding, Adrenergic α2A
T3 construct: expressed in transfected cells; host or cells: insect Sf9 cells
T3 sequence (P08913 1-465): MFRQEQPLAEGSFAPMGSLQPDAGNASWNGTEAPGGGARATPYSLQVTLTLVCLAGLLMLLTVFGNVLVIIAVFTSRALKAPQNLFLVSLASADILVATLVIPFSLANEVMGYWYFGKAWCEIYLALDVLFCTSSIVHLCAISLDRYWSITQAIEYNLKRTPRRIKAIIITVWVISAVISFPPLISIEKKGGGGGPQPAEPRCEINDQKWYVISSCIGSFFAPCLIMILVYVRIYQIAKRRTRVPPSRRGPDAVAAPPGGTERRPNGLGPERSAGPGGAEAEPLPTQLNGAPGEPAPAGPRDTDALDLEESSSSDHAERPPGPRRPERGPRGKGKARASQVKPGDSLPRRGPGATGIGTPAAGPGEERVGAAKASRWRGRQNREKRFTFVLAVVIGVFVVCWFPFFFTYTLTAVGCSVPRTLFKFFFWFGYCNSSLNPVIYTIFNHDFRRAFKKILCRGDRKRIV
In short: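 Sf9-expressed receptor was incubated with compound for 60 min at 25 °C in modified Tris-HCl buffer, pH 7.4. Nonspecific binding was taken as that remaining with 10 μM WB-4101.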

SMILES | Percentage inhibition of ligand binding, Adrenergic α2B [1] | Percentage inhibition of ligand binding, Adrenergic α1B [2] | Percentage inhibition of ligand binding, Adrenergic α2A ([3]; 0.1 µM) | inhibition at 0.1 µM [2] | inhibition at 0.1 µM [3] | inhibition at 0.03 µM [1] | Percentage inhibition of ligand binding, Adrenergic α2A [3] | Ki [1] | inhibition at 0.03 µM [2] | Ki [3]
Cc1ccc2c(c1)c1c(n2CC(O)c2cccnc2)CCNC1 (single isomer, unassigned) [9b, 2-(8-methyl-1,2,3,4-tetrahydro-pyrido[4,3-b]indol-5-yl)-1-pyridin-3-yl-ethanol] | 50% | 10% | 10% |  |  |  |  |  |  | 
OC(Cn1c2c(c3cc(Cl)ccc31)CNCC2)c1ccncc1 (single isomer, unassigned) [10a, 2-(8-chloro-1,2,3,4-tetrahydro-pyrido[4,3-b]indol-5-yl)-1-pyridin-4-yl-ethanol] | 34% |  |  | 30% | 8% |  |  |  |  | 
OC(Cn1c2c(c3cc(Cl)ccc31)CNCC2)c1ccncc1 (single isomer, unassigned) [10b, 2-(8-chloro-1,2,3,4-tetrahydro-pyrido[4,3-b]indol-5-yl)-1-pyridin-4-yl-ethanol] | 91% | 28% | 15% |  |  |  |  |  |  | 
CC(C)(O)CCN1CCc2c(c3cc(Cl)ccc3n2CC(O)c2ccncc2)C1 (single isomer, unassigned) [11a, 4-[8-chloro-5-(2-hydroxy-2-pyridin-4-yl-ethyl)-1,3,4,5-tetrahydro-pyrido[4,3-b]indol-2-yl]-2-methyl-butan-2-ol] | 28% |  | −6% | 16% |  |  |  |  |  | 
CC(C)(O)CCN1CCc2c(c3cc(Cl)ccc3n2CC(O)c2ccncc2)C1 (single isomer, unassigned) [11b, 4-[8-chloro-5-(2-hydroxy-2-pyridin-4-yl-ethyl)-1,3,4,5-tetrahydro-pyrido[4,3-b]indol-2-yl]-2-methyl-butan-2-ol] | 64% | 18% | 13% |  |  |  |  |  |  | 
CC(O)(Cn1c2c(c3cc(Cl)cnc31)CNCC2)c1ccncc1 (single isomer, unassigned) [12a, 1-(3-chloro-5,6,7,8-tetrahydro-1,6,9-triaza-fluoren-9-yl)-2-pyridin-4-yl-propan-2-ol] |  | 23% |  |  | 3% | 24% |  |  |  | 
CC(O)(Cn1c2c(c3cc(Cl)cnc31)CNCC2)c1ccncc1 (single isomer, unassigned) [12b, 1-(3-chloro-5,6,7,8-tetrahydro-1,6,9-triaza-fluoren-9-yl)-2-pyridin-4-yl-propan-2-ol] | 21% | 8% |  |  |  |  | 3% |  |  | 
Cc1ccc2c(c1)c1c(n2CC(O)c2ccncc2)CCN(C)CC1 (single isomer, unassigned) [13a, 2-(3,9-dimethyl-2,3,4,5-tetrahydroazepino[4,5-b]indol-6(1H)-yl)-1-(pyridin-4-yl)ethanol] | 37% | 75% | −2% |  |  |  |  |  |  | 
Cc1ccc2c(c1)c1c(n2CC(C)(O)c2cccnc2)CN(C)CC1 (single isomer, unassigned) [14a, 1-(2,6-dimethyl-1,2,3,4-tetrahydro-β-carbolin-9-yl)-2-pyridin-3-yl-propan-2-ol] | 98% | 44% |  | 43% |  | 97% |  | 1.92 nM | 17% | 123 nM
CN1CCc2c(n(CC(O)c3ccncc3)c3ccc(Cl)cc23)CC1 (single isomer, unassigned) [15a, 2-(9-chloro-3-methyl-2,3,4,5-tetrahydroazepino[4,5-b]indol-6(1H)-yl)-1-(pyridin-4-yl)ethanol] | 65% | 81% | 6% |  |  |  |  |  |  | 
CN1CCc2c(n(CC(O)c3ccncc3)c3ccc(Cl)cc23)CC1 (single isomer, unassigned) [15b, 2-(9-chloro-3-methyl-2,3,4,5-tetrahydroazepino[4,5-b]indol-6(1H)-yl)-1-(pyridin-4-yl)ethanol] |  | 93% | 24% | 89% | 21% | 103% |  | 0.64 nM | 73% | 112 nM
Cc1ccc2c(c1)c1c(n2CC(C)(O)c2ccccn2)CN(C)CC1 (single isomer, unassigned) [16a, 1-(2,6-dimethyl-1,2,3,4-tetrahydro-β-carbolin-9-yl)-2-pyridin-2-yl-propan-2-ol] | 33% | 47% | 9% |  |  |  |  |  |  | 
Cc1ccc2c(c1)c1c(n2CC(C)(O)c2ccccn2)CN(C)CC1 (single isomer, unassigned) [16b, 1-(2,6-dimethyl-1,2,3,4-tetrahydro-β-carbolin-9-yl)-2-pyridin-2-yl-propan-2-ol] | 2% | 16% | 2% |  |  |  |  |  |  | 
